Here are results for eleven compounds from US20250163006A1, “New Coolants, and Preparations Containing Same” (Symrise AG, priority 2022, published 2025).

pEC50: −log10 of the molar value. Like-named read-outs stand apart in the source and are kept apart here. Where only a bound is given, the exact number is not on record here.

One test concerns the target T1, human TRPM8 receptor (Homo sapiens, UniProt Q7Z2W7).
T1 construct: expressed in transfected cells; host or cells: HEK293, stably transfected, tetracycline-inducible expression
The experiment in a line: Assay on TRPM8 modulators: Ca2+-sensitive dye (Fluo-4) fluorescence in HEK293-TRPM8 test cells. The test is classed as cell-based. The arrangement: relative TRPM8 activation: concentration or dose not given beside the values. To be noted: for pEC50: HEK293-TRPM8 cells; for relative TRPM8 activation: HEK293 cells recombinantly expressing human TRPM8. In a few lines:
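HEK293 cells stably carrying tetracycline-inducible human TRPM8 (1 µg/ml tetracycline), loaded next day with Fluo-4 (30 min 37 °C, 30 min RT). Compounds tested in triplicate at 0.1–200 µM (≤2% DMSO) and fluorescence read at 485/520 nm. EC50 from 4- or 5-parameter logistic fits of 6–10 concentrations.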

Test [1] is described as follows: Sensory tasting of cooling intensity by trained panelists, WS-3 as reference. To be noted: 5 ppm in 5% sugar solution, rated after one minute, scale 1 (very weak) to 9 (very strong); for Sensory evaluation: cooling intensity; for cooling intensity (sensory evaluation, score): tasted 40 seconds, n=10 to 11. The test is classed as in vivo, human. The method, then: In order to quantify the cooling effect, comparative tests are carried out using menthane-3-carboxylic acid-N-ethylamide as a reference. For these comparative tests, the skilled person replaces the compound or compounds to be used according to the invention with menthane-3-carboxylic acid-N-ethylamide (also referred to as WS-3). Then the intensities of the cooling effects of the respective compounds or active ingredients are sensory evaluated by trained panelists (n=10 to 11) as described below and compared with each other.
The cooling intensity was tested as follows: Test solutions with 5 ppm of the compounds according to the invention were each tasted in a 5% sugar solution as well as a corresponding solution with 30 ppm of the reference substance WS-3. […] The panelists tasted the corresponding test solutions for exactly 40 seconds, rinsing the entire mouth with the corresponding test solution and then spitting out the sample or reference solution. Following the tasting, the test subjects rated the respective cooling intensity after one minute according to a scale of 1 (very weak) to 9 (very strong).

[2] abbreviates: TRPM8 activation, 6 to 10 concentrations, logistic curve fitting, read-out: EC50 value.

T1 sequence (Q7Z2W7 whole entry): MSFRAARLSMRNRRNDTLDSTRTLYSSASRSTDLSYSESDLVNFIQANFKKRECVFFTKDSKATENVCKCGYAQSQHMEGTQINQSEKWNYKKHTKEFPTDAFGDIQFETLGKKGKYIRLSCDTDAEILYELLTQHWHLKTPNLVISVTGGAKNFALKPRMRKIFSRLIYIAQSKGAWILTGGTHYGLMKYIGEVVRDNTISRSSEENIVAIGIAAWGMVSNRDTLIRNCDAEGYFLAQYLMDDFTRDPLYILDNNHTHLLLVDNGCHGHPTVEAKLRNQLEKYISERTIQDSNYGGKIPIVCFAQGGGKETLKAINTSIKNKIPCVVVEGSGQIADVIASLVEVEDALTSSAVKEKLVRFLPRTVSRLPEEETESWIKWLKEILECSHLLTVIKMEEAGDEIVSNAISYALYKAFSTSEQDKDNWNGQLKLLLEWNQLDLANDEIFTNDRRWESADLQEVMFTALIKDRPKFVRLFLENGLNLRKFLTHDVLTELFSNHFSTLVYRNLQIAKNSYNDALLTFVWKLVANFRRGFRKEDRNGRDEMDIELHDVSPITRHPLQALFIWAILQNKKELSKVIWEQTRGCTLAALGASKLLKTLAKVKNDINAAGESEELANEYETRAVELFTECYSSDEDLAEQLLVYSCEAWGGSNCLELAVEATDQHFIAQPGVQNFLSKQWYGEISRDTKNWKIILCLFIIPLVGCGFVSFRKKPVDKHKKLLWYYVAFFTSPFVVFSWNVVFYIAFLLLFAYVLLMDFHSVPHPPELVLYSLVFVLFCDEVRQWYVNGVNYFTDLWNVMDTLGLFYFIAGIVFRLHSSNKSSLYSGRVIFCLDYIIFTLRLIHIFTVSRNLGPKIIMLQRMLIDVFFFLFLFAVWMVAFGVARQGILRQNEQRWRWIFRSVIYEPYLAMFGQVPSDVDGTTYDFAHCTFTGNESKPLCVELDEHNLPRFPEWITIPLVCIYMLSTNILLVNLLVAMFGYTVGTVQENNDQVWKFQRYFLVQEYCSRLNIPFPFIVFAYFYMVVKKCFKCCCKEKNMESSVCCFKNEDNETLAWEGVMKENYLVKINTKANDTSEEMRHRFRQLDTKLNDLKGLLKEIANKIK

For the compound `CNC(=O)C(C)Sc1nnc2c3ccccc3c3ccccc3c2n1` (stereo not drawn) [Compound B-07, N-methyl-2-phenanthro[9,10-e][1,2,4]triazine-3-ylsulfanyl-propanamide], the pEC50 at human TRPM8 receptor (EC50 value, TRPM8 activation, 6 to 10 concentrations, logistic curve fitting) was at least 6.00; at human TRPM8 receptor (TRPM8 EC50, Table 5), 6.04; on human TRPM8 receptor (TRPM8 EC50, Table 7), 6.04. Besides, the Sensory evaluation in test [1] (Table 5) and in test [1] (Table 9) was 0.75 throughout.

Take `O=C(CCc1nc(-c2ccccc2)c(-c2ccccc2)o1)NC1CC1` [Compound A-22, N-cyclopropyl-3-(4,5-diphenyloxazol-2-yl)propanamide]: at human TRPM8 receptor, the “relative TRPM8 activation” value was determined as 69%. The compound also registered a Sensory evaluation in test [1] (Table 6) of 0.8.

On to `CNC(=O)C(C)Sc1nc(C)c(-c2ccccc2)o1` (stereo not drawn) [Compound A-05, N-methyl-2-(4-methyl-5-phenyl-oxazol-2-yl)sulfanyl-propanamide], for which the negative-log EC50 (pEC50) is 5.64 on human TRPM8 receptor (Table 6, read-out: TRPM8 EC50) and 5.64 on human TRPM8 receptor (Table 8, read-out: TRPM8 EC50). Also, the Sensory evaluation in test [1] (Table 6) and in test [1] (Table 10) was 1.1 in each case.

Consider `CC(Sc1nc(-c2ccccc2)c(-c2ccccc2)o1)C(=O)NC1CC1` (stereo not drawn) [Compound A-10, N-cyclopropyl-2-(4,5-diphenyloxazol-2-yl) sulfanyl-propanamide], for which the negative-log EC50 (pEC50) is 5.67 at human TRPM8 receptor (Table 6, read-out: TRPM8 EC50) and 5.67 on human TRPM8 receptor (Table 8, read-out: TRPM8 EC50). In addition, in test [1], the “cooling intensity (sensory evaluation, score)” value (“cooling intensity” for short) came out at 5.38. For the same compound, the Sensory evaluation in test [1] (Table 6) and in test [1] (Table 10) was 5.38 in each case.

`CNC(=O)[C@H]1C[C@@H]1c1nc(-c2ccccc2)c(-c2ccccc2)o1` (racemic) [Compound A-39, rac-(1S,2S)-2-(4,5-diphenyloxazol-2-yl)-N-methyl-cyclopropane-carboxamides]: the “relative TRPM8 activation” value at human TRPM8 receptor worked out at 5%. The Sensory evaluation in test [1] (Table 6) was determined as 0.7.

For the compound `CNC(=O)C(C)Sc1nc(-c2ccccc2)c(-c2ccccc2)o1` (stereo not drawn) [Compound A-02, 2-(4,5-diphenyloxazol-2-yl)sulfanyl-N-methyl-propanamide], the pEC50 is 8.00 at human TRPM8 receptor (Table 6, read-out: TRPM8 EC50) and 8.00 at human TRPM8 receptor (Table 8, read-out: TRPM8 EC50). Also, in test [1], the “cooling intensity” value was 5.4. In addition, the Sensory evaluation in test [1] (Table 6) and in test [1] (Table 10) was 5.4 throughout.

`CC(Sc1nc(-c2ccccc2)c(-c2ccccc2)o1)C(N)=O` (stereo not drawn) [Compound A-20, 2-(4,5-diphenyloxazol-2-yl)sulfanyl-propanamide]: the “relative TRPM8 activation” value at human TRPM8 receptor was determined as 73%. This compound also gave a Sensory evaluation in test [1] (Table 6) of 0.81.

For the compound `CNC(=O)C(C)Sc1cnc(-c2ccccc2)c(-c2ccccc2)n1` (stereo not drawn) [Compound B-02, 2-(5,6-diphenylpyrazin-2-yl)sulfanyl-N-methyl-propanamide], the negative logarithm of the EC50 (pEC50) on human TRPM8 receptor (setting [2]) is at least 6.00; at human TRPM8 receptor (Table 5, read-out: TRPM8 EC50) it was 7.10; on human TRPM8 receptor (Table 7, read-out: TRPM8 EC50), 7.10. In addition, the “cooling intensity” value in test [1] is reported as 4.1. The Sensory evaluation in test [1] (Table 5) and in test [1] (Table 9) was 4.1 each time.

For `CCC(Sc1nc(-c2ccccc2)c(-c2ccccc2)o1)C(=O)NC` (stereo not drawn) [Compound A-09, 2-(4,5-diphenyloxazol-2-yl)sulfanyl-N-methyl-butanamide], the pEC50 was 5.81 at human TRPM8 receptor (Table 6, read-out: TRPM8 EC50) and 5.81 on human TRPM8 receptor (Table 8, read-out: TRPM8 EC50). In addition, the “cooling intensity” value in test [1] is given as 4.66. In addition, the Sensory evaluation in test [1] (Table 6) and in test [1] (Table 10) was 4.66 in each case.

Take `CCCNC(=O)C(C)Sc1nc(-c2ccccc2)c(-c2ccccc2)o1` (stereo not drawn) [Compound A-12, 2-(4,5-diphenyloxazol-2-yl)sulfanyl-N-propyl-propanamide]: the negative-log EC50 (pEC50) on human TRPM8 receptor (Table 6, read-out: TRPM8 EC50) was 5.29; at human TRPM8 receptor (Table 8, read-out: TRPM8 EC50), 5.29. The Sensory evaluation in test [1] (Table 6) and in test [1] (Table 10) was 1.26 throughout.

For `O=C(CSc1nnc(-c2ccccc2)c(-c2ccccc2)n1)N1CCC1` [Compound B-06, 1-(azetidin-1-yl)-2-[(5,6-diphenyl-1,2,4-triazin-3-yl)sulfanyl]ethanone], the pEC50 at human TRPM8 receptor (setting [2]) was at least 6.00; at human TRPM8 receptor (Table 5, read-out: TRPM8 EC50), 6.55; on human TRPM8 receptor (Table 7, read-out: TRPM8 EC50), 6.55. In addition, the Sensory evaluation in test [1] (Table 5) and in test [1] (Table 9) was 3.0 throughout.

Broadly, the pEC50 is −log10 of the EC50, conventionally taken in molar units.
